In the kinase profiling compilation of Christmann-Franck et al. (2016):

Tests used:
Assay in all cases: KINOMEscan competition binding
Conditions in all cases: compound 10.0 µM
ALK (human) = ALK (human) (UniProt Q9UM73)
BRAF (human) = BRAF (human) (UniProt P15056)
CDC42BPA (human) = CDC42BPA (human) (UniProt Q5VT25)
CDK11B (human) = CDK11B (human) (UniProt P21127)
CDK16 (human) = CDK16 (human) (UniProt Q00536)
CDK8 (human) = CDK8 (human) (UniProt P49336)
CSNK1A1 (human) = CSNK1A1 (human) (UniProt P48729)
CSNK2A1 (human) = CSNK2A1 (human) (UniProt P68400)
CSNK2A2 (human) = CSNK2A2 (human) (UniProt P19784)
[1] = test system: EGFR (human), P00533 [L858R]
EIF2AK1 (human) = EIF2AK1 (human) (UniProt Q9BQI3)
FGFR1 (human) = FGFR1 (human) (UniProt P11362)
FGFR2 (human) = FGFR2 (human) (UniProt P21802)
FRK (human) = FRK (human) (UniProt P42685)
[2] = test system: KIT (human), P10721 [D816H]
LATS1 (human) = LATS1 (human) (UniProt O95835)
MAP2K2 (human) = MAP2K2 (human) (UniProt P36507)
MAP3K2 (human) = MAP3K2 (human) (UniProt Q9Y2U5)
MAPK3 (human) = MAPK3 (human) (UniProt P27361)
MAPK8 (human) = MAPK8 (human) (UniProt P45983)
MAPK9 (human) = MAPK9 (human) (UniProt P45984)
MAPKAPK5 (human) = MAPKAPK5 (human) (UniProt Q8IW41)
MAST1 (human) = MAST1 (human) (UniProt Q9Y2H9)
NTRK2 (human) = NTRK2 (human) (UniProt Q16620)
NTRK3 (human) = NTRK3 (human) (UniProt Q16288)
PAK1 (human) = PAK1 (human) (UniProt Q13153)
PAK3 (human) = PAK3 (human) (UniProt O75914)
PKN3 (M.tuberculosis) = PKN3 (M.tuberculosis) (UniProt Q6P5Z2)
PRKAA1 (human) = PRKAA1 (human) (UniProt Q13131)
RPS6KA4 KD1 (human) = RPS6KA4 KD1 (human) (UniProt O75676)
RPS6KB1 (human) = RPS6KB1 (human) (UniProt P23443)
SGK3 (human) = SGK3 (human) (UniProt Q96BR1)
STK33 (human) = STK33 (human) (UniProt Q9BYT3)
TEK (human) = TEK (human) (UniProt Q02763)
TESK1 (human) = TESK1 (human) (UniProt Q15569)
[3] = test system: ABL1 (human), P00519 [F317L]
CLK1 (human) = CLK1 (human) (UniProt P49759)

MAPK9 (human), sequence (P45984 whole entry, looked up): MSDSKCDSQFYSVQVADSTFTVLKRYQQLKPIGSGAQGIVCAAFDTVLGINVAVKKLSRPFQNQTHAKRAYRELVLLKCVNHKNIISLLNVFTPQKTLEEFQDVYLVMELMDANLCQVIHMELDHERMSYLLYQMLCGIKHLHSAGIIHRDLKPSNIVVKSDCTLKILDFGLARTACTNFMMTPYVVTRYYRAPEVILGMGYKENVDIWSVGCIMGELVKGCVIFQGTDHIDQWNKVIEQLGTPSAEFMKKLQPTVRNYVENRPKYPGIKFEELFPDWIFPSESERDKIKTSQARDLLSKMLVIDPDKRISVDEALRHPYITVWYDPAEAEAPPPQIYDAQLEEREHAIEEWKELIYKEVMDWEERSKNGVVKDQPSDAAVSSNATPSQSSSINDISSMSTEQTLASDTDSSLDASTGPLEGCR
FGFR2 (human), sequence (P21802 whole entry, looked up): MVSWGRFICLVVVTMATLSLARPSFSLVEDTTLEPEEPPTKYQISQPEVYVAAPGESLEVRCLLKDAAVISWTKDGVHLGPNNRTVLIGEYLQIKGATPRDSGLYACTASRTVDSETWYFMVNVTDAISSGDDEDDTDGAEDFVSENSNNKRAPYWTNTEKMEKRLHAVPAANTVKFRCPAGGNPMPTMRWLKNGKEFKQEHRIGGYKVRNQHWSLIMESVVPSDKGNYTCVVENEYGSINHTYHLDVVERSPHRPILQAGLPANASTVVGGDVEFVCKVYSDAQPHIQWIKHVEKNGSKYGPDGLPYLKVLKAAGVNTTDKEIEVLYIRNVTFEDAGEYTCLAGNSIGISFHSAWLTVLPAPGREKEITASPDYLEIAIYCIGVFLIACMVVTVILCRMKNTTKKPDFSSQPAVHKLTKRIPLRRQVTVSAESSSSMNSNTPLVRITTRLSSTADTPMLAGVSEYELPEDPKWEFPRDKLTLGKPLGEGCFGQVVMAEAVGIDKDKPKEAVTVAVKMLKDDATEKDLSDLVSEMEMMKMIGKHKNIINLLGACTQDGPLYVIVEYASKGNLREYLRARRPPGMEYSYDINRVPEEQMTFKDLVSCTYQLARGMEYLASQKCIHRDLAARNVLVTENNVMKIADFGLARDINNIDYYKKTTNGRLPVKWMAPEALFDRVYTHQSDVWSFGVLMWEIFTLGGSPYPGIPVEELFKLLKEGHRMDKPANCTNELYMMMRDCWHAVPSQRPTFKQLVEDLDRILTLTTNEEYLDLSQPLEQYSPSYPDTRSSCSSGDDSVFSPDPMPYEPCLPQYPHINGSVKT
NTRK2 (human), sequence (Q16620 whole entry, looked up): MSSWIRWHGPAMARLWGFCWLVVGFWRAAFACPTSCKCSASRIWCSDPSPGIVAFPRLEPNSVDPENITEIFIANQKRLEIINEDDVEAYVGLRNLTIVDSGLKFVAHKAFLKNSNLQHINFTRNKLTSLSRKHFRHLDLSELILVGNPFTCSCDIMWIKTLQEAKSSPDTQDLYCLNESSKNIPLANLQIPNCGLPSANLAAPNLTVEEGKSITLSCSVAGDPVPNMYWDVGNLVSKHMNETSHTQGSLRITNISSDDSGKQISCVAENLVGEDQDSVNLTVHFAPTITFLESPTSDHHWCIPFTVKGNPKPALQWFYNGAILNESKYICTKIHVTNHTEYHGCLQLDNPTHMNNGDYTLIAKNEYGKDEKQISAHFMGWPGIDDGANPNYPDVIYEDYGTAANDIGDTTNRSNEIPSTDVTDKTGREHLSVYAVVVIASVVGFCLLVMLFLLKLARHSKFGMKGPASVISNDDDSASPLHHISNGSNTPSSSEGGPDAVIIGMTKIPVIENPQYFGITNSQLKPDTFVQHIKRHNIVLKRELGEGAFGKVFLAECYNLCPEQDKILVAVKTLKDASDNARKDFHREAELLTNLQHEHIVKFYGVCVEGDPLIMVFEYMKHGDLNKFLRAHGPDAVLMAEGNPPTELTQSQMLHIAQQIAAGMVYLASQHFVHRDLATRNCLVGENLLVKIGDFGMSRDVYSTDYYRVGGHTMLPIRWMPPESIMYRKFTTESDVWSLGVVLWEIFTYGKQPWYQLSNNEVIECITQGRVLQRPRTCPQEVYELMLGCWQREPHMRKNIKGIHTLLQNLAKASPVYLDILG
MAST1 (human), sequence (Q9Y2H9 whole entry, looked up): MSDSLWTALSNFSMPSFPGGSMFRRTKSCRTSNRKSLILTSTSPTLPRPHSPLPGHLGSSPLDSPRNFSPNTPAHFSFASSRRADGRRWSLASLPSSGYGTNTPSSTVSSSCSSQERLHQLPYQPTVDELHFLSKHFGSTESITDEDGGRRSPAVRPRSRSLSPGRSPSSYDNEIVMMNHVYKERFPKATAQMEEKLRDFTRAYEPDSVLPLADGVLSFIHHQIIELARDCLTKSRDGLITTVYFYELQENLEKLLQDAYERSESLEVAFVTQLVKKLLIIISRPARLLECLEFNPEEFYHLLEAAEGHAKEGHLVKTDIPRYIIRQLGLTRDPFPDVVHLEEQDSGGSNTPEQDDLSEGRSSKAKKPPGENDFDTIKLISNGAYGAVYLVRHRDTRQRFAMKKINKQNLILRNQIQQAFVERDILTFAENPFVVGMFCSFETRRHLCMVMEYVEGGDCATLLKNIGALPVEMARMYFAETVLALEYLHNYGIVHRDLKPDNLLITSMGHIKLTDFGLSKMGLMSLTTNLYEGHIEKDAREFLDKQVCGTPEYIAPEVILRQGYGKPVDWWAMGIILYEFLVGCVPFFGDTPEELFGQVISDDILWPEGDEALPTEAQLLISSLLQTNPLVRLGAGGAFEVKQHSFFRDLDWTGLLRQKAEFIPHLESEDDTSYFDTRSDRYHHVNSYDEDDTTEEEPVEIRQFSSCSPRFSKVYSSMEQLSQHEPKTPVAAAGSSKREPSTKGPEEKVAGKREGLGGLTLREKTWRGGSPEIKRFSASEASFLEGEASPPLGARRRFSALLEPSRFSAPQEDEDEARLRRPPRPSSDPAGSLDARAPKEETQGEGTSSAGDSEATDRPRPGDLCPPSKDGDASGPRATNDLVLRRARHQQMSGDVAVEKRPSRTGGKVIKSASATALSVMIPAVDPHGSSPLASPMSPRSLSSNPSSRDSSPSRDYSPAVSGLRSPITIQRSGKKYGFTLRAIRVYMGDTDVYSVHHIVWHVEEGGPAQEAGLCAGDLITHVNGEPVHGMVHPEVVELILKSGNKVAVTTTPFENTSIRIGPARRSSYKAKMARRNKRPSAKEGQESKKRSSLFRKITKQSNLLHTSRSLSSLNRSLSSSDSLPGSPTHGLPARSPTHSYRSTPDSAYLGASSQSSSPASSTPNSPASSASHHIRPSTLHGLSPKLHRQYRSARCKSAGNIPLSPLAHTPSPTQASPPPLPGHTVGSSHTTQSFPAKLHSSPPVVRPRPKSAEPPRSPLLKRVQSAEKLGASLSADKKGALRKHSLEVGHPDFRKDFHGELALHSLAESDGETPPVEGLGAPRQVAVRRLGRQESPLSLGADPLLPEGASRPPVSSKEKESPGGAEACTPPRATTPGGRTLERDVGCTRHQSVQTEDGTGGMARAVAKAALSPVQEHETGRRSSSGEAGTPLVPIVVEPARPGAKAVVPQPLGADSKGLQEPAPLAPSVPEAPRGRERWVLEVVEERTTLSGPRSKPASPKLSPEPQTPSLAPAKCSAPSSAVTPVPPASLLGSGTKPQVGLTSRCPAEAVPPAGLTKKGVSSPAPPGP
LATS1 (human), sequence (O95835 whole entry, looked up): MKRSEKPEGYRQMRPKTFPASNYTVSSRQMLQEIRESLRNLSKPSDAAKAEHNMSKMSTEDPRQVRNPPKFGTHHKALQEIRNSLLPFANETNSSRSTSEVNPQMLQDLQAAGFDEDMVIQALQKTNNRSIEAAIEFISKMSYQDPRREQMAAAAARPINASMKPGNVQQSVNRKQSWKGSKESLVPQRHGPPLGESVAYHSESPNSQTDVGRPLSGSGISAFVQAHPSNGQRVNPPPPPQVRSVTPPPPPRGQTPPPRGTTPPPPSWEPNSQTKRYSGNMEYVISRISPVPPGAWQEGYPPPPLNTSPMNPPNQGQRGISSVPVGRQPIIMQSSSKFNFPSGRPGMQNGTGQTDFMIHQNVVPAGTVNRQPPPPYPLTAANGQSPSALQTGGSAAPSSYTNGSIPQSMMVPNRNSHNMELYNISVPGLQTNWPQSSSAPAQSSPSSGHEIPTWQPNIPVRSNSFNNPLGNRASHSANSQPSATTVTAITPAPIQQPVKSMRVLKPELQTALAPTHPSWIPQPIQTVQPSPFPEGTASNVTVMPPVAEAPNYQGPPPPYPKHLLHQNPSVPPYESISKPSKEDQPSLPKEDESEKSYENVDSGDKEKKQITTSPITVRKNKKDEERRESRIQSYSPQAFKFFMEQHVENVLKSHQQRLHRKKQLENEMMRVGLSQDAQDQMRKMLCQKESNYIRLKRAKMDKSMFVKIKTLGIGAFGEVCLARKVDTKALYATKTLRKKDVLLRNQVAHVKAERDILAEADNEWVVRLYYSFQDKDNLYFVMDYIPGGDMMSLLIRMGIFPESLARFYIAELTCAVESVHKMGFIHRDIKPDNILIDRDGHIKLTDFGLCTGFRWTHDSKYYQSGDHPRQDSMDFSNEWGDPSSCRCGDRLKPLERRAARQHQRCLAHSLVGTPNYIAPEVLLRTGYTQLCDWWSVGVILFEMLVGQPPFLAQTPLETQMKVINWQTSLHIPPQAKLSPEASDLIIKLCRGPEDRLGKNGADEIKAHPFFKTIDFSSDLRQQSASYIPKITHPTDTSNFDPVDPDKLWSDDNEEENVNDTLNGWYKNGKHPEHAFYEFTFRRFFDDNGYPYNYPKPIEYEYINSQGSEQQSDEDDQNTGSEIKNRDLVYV
CSNK1A1 (human), sequence (P48729 whole entry, looked up): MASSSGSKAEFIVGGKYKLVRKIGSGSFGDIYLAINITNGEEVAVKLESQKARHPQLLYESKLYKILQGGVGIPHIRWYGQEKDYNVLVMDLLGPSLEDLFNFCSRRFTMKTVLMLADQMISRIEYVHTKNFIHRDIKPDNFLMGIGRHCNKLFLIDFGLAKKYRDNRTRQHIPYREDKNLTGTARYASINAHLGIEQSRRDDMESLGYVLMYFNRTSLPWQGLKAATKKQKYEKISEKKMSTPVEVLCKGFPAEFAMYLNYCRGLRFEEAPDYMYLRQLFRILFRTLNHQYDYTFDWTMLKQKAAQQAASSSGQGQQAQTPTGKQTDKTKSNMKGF

Compound | kinase still bound, per cent of control (BRAF (human)) [%] | kinase still bound, per cent of control (CDC42BPA (human)) [%] | kinase still bound, per cent of control (CDK11B (human)) [%] | kinase still bound, per cent of control (CDK8 (human)) [%] | kinase still bound, per cent of control (CSNK2A1 (human)) [%] | kinase still bound, per cent of control (CSNK2A2 (human)) [%] | kinase still bound, per cent of control (FGFR1 (human)) [%] | kinase still bound, per cent of control (FGFR2 (human)) [%] | kinase still bound, per cent of control (FRK (human)) [%] | kinase still bound, per cent of control (LATS1 (human)) [%] | kinase still bound, per cent of control (MAP2K2 (human)) [%] | kinase still bound, per cent of control (MAP3K2 (human)) [%] | kinase still bound, per cent of control (MAPK3 (human)) [%] | kinase still bound, per cent of control (MAPK8 (human)) [%] | kinase still bound, per cent of control (MAPK9 (human)) [%] | kinase still bound, per cent of control (MAPKAPK5 (human)) [%] | kinase still bound, per cent of control (MAST1 (human)) [%] | kinase still bound, per cent of control (NTRK2 (human)) [%] | kinase still bound, per cent of control (NTRK3 (human)) [%] | kinase still bound, per cent of control (PAK1 (human)) [%] | further results
CCCS(=O)(=O)Nc1ccc(F)c(C(=O)c2c[nH]c3ncc(Cl)cc23)c1F | 0 | 96 | 99 | 2.2 | 18 | 12 | 34 | 59 | 19 | 86 | 1 | 62 | 100 | 96 | 71 | 100 | 100 | 82 | 77 | 11 | kinase still bound, per cent of control (ALK (human)): 14%; kinase still bound, per cent of control (CDK16 (human)): 68%; kinase still bound, per cent of control (CSNK1A1 (human)): 84%; kinase still bound, per cent of control [1]: 72%; kinase still bound, per cent of control (EIF2AK1 (human)): 32%; kinase still bound, per cent of control [2]: 93%; kinase still bound, per cent of control (PAK3 (human)): 34%; kinase still bound, per cent of control (PKN3 (M.tuberculosis)): 46%; kinase still bound, per cent of control (PRKAA1 (human)): 64%; kinase still bound, per cent of control (RPS6KA4 KD1 (human)): 85%; kinase still bound, per cent of control (RPS6KB1 (human)): 58%; kinase still bound, per cent of control (SGK3 (human)): 49%; kinase still bound, per cent of control (STK33 (human)): 85%; kinase still bound, per cent of control (TEK (human)): 100%; kinase still bound, per cent of control (TESK1 (human)): 13%
CCOc1cc(N2CCC(O)CC2)ccc1Nc1ncc2c(n1)N(C)c1ccccc1C(=O)N2C | 100 | 100 | 100 | 100 | 100 | 100 | 100 | 100 | 100 | 100 | 100 | 100 | 100 | 100 | 100 | 100 | 100 | 100 | 100 | 100 | kinase still bound, per cent of control [3]: 100%; kinase still bound, per cent of control (ALK (human)): 29%; kinase still bound, per cent of control (CDK16 (human)): 100%; kinase still bound, per cent of control (CLK1 (human)): 100%; kinase still bound, per cent of control [1]: 100%; kinase still bound, per cent of control (PAK3 (human)): 100%; kinase still bound, per cent of control (PRKAA1 (human)): 100%; kinase still bound, per cent of control (RPS6KA4 KD1 (human)): 100%; kinase still bound, per cent of control (STK33 (human)): 100%; kinase still bound, per cent of control (TEK (human)): 100%; kinase still bound, per cent of control (TESK1 (human)): 100%
CCc1nc(-c2cccc(C)c2)c(-c2ccnc(NC(=O)c3ccccc3)c2)s1 | 40 | 82 | 88 | 88 | 100 | 86 | 72 | 71 | 36 | 100 | 90 | 100 | 98 | 0.3 | 0 | 100 | 100 | 100 | 96 | 76 | kinase still bound, per cent of control (CDK16 (human)): 100%; kinase still bound, per cent of control (CLK1 (human)): 92%; kinase still bound, per cent of control (EIF2AK1 (human)): 100%; kinase still bound, per cent of control [2]: 57%; kinase still bound, per cent of control (PAK3 (human)): 82%; kinase still bound, per cent of control (PKN3 (M.tuberculosis)): 100%; kinase still bound, per cent of control (PRKAA1 (human)): 81%; kinase still bound, per cent of control (RPS6KA4 KD1 (human)): 100%; kinase still bound, per cent of control (RPS6KB1 (human)): 90%; kinase still bound, per cent of control (SGK3 (human)): 100%; kinase still bound, per cent of control (STK33 (human)): 97%; kinase still bound, per cent of control (TEK (human)): 94%; kinase still bound, per cent of control (TESK1 (human)): 81%
CCN(CCO)CCCOc1ccc2c(Nc3cc(CC(=O)Nc4cccc(F)c4)[nH]n3)ncnc2c1 | 100 | 100 | 6.5 | 75 | 84 | 86 | 85 | 80 | 90 | 100 | 21 | 87 | 100 | 59 | 46 | 100 | 90 | 8.2 | 56 | 100 | kinase still bound, per cent of control (ALK (human)): 98%; kinase still bound, per cent of control (CLK1 (human)): 69%; kinase still bound, per cent of control (CSNK1A1 (human)): 49%; kinase still bound, per cent of control (EIF2AK1 (human)): 5.2%; kinase still bound, per cent of control [2]: 34%; kinase still bound, per cent of control (PAK3 (human)): 57%; kinase still bound, per cent of control (PKN3 (M.tuberculosis)): 50%; kinase still bound, per cent of control (PRKAA1 (human)): 64%; kinase still bound, per cent of control (RPS6KA4 KD1 (human)): 73%; kinase still bound, per cent of control (RPS6KB1 (human)): 13%; kinase still bound, per cent of control (SGK3 (human)): 100%; kinase still bound, per cent of control (STK33 (human)): 51%; kinase still bound, per cent of control (TEK (human)): 13%; kinase still bound, per cent of control (TESK1 (human)): 100%
